Tests used:
human GlyT1 (hGlyT1) [1] = molecular target: T1, human GlyT1 (hGlyT1) (Homo sapiens, UniProt P48067); assay: [3H]Org24598 membrane competition, filtration; format: binding
T1 sequence (P48067 1-706): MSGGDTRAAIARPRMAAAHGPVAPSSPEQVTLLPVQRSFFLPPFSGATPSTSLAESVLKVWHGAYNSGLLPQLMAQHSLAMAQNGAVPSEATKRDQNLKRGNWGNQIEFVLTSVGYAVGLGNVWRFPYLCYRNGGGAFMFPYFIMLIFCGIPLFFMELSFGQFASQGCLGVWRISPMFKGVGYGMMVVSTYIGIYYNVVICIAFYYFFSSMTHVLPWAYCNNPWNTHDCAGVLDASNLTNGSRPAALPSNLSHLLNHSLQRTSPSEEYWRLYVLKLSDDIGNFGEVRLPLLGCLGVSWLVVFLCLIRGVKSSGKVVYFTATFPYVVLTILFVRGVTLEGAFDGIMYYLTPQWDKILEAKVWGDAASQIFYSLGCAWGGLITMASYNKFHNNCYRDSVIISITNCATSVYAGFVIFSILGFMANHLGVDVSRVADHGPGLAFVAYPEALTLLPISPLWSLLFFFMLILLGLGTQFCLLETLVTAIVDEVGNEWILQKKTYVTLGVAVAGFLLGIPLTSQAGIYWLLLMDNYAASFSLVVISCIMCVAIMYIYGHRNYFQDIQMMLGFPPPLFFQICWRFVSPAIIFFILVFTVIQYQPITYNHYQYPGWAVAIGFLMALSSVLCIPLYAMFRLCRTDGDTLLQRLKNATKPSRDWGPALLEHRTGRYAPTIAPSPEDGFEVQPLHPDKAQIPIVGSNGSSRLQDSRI

human GlyT1 (hGlyT1) [2] = molecular target: T1, human GlyT1 (hGlyT1); assay: [3H]glycine uptake inhibition in Flp-in-CHO cells; format: cell-based
GlyT1^minimal = molecular target: T2, GlyT1^minimal (Homo sapiens, UniProt P48067); assay: CPM thermofluor; format: binding; details: 10 uM Cmpd1; 0.73 uM protein; pH 7.5; LMNG
T2 sequence (P48067 91-684): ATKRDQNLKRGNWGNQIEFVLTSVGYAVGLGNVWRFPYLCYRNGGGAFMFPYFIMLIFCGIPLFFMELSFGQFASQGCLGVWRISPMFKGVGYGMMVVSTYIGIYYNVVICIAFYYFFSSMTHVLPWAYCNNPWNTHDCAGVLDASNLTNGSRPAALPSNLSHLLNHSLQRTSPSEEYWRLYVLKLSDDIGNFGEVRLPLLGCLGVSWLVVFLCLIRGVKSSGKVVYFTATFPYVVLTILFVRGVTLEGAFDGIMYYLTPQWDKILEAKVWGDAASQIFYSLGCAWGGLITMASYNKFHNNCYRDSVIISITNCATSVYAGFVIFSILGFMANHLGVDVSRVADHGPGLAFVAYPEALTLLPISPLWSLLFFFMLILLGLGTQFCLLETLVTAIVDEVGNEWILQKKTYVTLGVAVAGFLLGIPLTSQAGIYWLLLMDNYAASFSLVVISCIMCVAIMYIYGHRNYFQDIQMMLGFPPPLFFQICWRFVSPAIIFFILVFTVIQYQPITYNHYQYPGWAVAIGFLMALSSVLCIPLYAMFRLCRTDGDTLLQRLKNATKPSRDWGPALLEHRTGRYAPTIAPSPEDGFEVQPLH

`CS(=O)(=O)c1ccc(OCC(F)(F)C(F)(F)F)c(C(=O)N2Cc3ccc(OC4CCOCC4)cc3C2)c1` [Cmpd1] was tested, and the IC50 (human GlyT1 (hGlyT1) [1]) was 12.5 nM, the IC50 (human GlyT1 (hGlyT1) [2]) was 26.4 nM and the “increase in melting point” value (GlyT1^minimal) was 30.5 °C.

— paper doi:10.1101/2020.12.20.110478v1 (biorxiv, 2020)
